Measurements reported in patent US9226929B2, “Pharmaceutically active disubstituted triazine derivatives” (Bayer Intellectual Property GMBH, priority 2011, dated 2016).

How the values were obtained:
[1] = target: T1, CDK7/CyclinH/MAT1 (Homo sapiens, UniProt P50613); experiment: LanthaScreen Eu Kinase Binding Assay, CDK7; details: tracer 236, read-out: CDK7 (activity range), Kd
T1 construct: His; purchased Carna Biosciences
Method: (§1) This protocol describes how the LanthaScreen Eu Kinase Binding Assay was performed to determine dissociation constants (Kd) of compounds of general formula (I) and CDK/Cyclin complexes. The principle behind this assay is based upon the binding and displacement of an Alexa Fluor 647-labeled tracer, which binds to the active site of kinases. Binding of the tracer to the kinase is detected using a Eu-labeled antibody. Simultaneous binding of both the tracer and antibody to the kinase gives rise to a FRET-signal. Binding of an inhibitor to the kinase competes for binding with the tracer, resulting in a loss of FRET.
(§2) The compounds of general formula (I) summarized in Table 1 were diluted from a 10 mM DMSO stock solution 1:10 in a total volume of 15 μL DMSO. This compound predilution was then serial diluted 1:3 over 8 steps in DMSO and briefly spun down. Each compound solution was now diluted 1:33.33 in kinase buffer (HEPES: 20 mM, pH: 8.0; MgCl2: 10 mM; DTT: 1 mM; Brij-35: 0,01%), mixed thoroughly and spun down. For every sample, 5 μL of the diluted compound were mixed with 5 μL tracer working solution (e.g. 60 nM tracer 236 in kinase buffer for CDK2/Cyclin A) and 5 μL CDK/Cyclin/Anti-GST-AB-working solution (e.g. 15 nM CDK2/Cyclin A, 1:250 dilution of Anti-GST-AB in kinase buffer) in a well of a small volume 384 well plate (Corning Incorporated, Corning, N.Y., USA; order no. 3673). The tracer concentration was adjusted to its dissociation constant (Kd) for the CDK/Cyclin, which was 30 nM for CDK2/Cyclin A, CDK7/Cyclin H and CDK9/Cyclin T1, 20 nM for CDK8/Cyclin C, and 35 nM for CDK9/Cyclin K. For negative controls, in each well 5 μL of DMSO working solution (3% DMSO diluted in kinase buffer) was mixed with 5 μL Anti-GST-AB working solution (e.g. 1:250 dilution of Anti-GST-AB in kinase buffer for CDK2/Cyclin A) and 5 μL Tracer working solution (e.g. 60 nM Tracer 236 in kinase buffer for CDK2/Cyclin A). For positive controls, in each well 5 μL of DMSO working solution (3% DMSO diluted in kinase buffer) was mixed with 5 μL CDK/Cyclin/Anti-GST-AB-working solution: (e.g. 15 nM CDK2/Cyclin A, 1:250 dilution of Anti-GST-AB in kinase buffer) and 5 μL Tracer working solution (e.g. 60 nM Tracer 236 in kinase buffer for CDK2/Cyclin A). Positive and negative controls were calculated from at least 8 different sample wells. The 384 well plates were mixed in a Teleshaker plate mixer (Beckman Coulter, Brea, Calif., USA) at 2000 rpm for 40 sec, and incubated for 1 h at room temperature before reading. The FRET signal was measured at 340 nm excitation, 665 nm and 615 nm emission (for the kinase tracer and LanthaScreen Eu-AB, respectively) with an Envision spectrophotometer (Perkin Elmer, Waltham, Mass., USA) with […]. Kd values were determined from the sigmoidal dose response curves with the software Quattro Workflow (Quattro GmbH, Munich, Germany).

[2] = target: T2, CDK9/Cyclin T1 (Homo sapiens, UniProt P50750); experiment: LanthaScreen Eu Kinase Binding Assay, CDK9/Cyclin T1; details: tracer 236, read-out: CDK9/Cyclin T1 (activity range), Kd
T2 construct: His; purchased Invitrogen
Method: as §1, §2

[3] = target: T3, CDK9/Cyclin K (Homo sapiens, UniProt P50750); experiment: LanthaScreen Eu Kinase Binding Assay, CDK9/Cyclin K; details: tracer 236, read-out: CDK9/Cyclin K (activity range), Kd
T3 construct: His; purchased Invitrogen
Method: as §1, §2

T1 sequence (P50613 whole entry): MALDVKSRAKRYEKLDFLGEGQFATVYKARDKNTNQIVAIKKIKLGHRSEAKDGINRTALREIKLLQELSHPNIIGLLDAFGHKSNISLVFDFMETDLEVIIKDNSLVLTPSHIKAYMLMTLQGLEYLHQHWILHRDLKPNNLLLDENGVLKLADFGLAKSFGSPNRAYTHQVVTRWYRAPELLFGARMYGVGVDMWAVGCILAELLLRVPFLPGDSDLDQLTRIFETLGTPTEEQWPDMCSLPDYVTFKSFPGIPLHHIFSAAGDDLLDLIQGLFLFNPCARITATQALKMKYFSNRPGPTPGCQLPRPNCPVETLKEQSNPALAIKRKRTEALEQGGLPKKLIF
T1 sequence (P51946 whole entry partner): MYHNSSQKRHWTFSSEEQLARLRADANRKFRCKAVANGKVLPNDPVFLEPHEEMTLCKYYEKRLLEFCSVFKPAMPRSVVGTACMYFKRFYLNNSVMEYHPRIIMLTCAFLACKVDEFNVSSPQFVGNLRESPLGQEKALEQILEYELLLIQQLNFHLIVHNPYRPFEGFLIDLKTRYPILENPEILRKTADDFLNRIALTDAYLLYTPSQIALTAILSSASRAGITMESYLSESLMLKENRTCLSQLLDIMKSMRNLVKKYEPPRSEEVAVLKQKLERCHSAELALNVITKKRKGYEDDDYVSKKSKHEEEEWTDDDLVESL
T1 sequence (P51948 whole entry partner): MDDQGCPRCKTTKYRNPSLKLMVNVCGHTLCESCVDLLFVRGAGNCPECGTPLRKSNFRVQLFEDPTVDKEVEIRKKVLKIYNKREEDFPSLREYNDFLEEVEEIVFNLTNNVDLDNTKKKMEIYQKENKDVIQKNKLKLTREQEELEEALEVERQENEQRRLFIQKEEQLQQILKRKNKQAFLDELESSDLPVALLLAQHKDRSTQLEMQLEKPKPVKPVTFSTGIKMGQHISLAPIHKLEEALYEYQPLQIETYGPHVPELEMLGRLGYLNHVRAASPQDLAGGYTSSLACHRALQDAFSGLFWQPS
T2 sequence (P50750 whole entry): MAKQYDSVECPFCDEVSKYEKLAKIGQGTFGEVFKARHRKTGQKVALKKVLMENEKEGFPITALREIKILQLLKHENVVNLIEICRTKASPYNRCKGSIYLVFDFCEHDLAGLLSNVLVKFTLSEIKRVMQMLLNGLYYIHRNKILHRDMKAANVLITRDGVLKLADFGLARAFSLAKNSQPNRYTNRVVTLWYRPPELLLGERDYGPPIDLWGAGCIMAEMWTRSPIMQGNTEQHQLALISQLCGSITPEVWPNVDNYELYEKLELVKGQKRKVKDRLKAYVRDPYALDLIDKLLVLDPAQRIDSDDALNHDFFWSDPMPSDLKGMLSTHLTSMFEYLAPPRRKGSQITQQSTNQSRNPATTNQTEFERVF
T2 sequence (O60563 whole entry partner): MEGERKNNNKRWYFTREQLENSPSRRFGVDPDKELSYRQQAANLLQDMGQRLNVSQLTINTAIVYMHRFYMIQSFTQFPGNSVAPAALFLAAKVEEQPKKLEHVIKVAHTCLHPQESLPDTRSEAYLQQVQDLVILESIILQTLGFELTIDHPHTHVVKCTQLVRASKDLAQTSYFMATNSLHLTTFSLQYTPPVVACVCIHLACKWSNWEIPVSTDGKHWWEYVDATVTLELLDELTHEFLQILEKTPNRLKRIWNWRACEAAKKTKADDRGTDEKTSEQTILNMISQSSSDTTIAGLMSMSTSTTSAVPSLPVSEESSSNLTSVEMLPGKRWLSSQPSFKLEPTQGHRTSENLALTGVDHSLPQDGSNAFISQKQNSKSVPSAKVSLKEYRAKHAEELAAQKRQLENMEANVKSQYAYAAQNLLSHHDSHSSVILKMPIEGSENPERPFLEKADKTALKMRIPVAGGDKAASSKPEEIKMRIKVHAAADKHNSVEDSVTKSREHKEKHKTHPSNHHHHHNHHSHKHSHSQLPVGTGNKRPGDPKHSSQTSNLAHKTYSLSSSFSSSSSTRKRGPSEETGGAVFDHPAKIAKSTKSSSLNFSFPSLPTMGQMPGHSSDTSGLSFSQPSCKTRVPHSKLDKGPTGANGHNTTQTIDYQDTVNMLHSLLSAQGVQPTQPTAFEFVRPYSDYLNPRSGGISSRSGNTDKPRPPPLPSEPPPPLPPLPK
T3 sequence (P50750 whole entry): as the sequence (P50750 whole entry) above
T3 sequence (O75909 1-357 isoform O75909-1 partner): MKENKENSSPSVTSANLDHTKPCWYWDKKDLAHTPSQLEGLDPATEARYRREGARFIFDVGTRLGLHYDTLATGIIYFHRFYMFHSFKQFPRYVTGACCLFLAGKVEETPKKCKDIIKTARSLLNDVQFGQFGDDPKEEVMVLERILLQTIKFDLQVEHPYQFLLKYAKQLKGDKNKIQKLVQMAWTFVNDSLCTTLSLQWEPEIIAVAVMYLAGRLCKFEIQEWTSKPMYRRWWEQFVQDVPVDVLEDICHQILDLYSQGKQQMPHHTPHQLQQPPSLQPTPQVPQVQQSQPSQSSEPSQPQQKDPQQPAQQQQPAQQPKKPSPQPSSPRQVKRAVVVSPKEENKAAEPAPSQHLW

SMILES | Kd [1] [nM] | Kd [2] [nM] | Kd [3] [nM]
NS(=O)(=O)Cc1cccc(Nc2ncnc(N3CCc4ccccc4C3)n2)c1 [Compound B40, 3-[(4-(3,4-Dihydroisoquinolin-2(1H)-yl)-1,3,5-triazin-2-yl)amino]-benzenemethanesulfonamide] | > 10000 | 1000 to 10000 | 1000 to 10000
NC(=O)[C@H]1CCCN1c1ncnc(Nc2cccc(CS(N)(=O)=O)c2)n1 [Compound B23, (R)-1-[4-((3-(Sulfamoylmethyl)phenyl)amino)-1,3,5-triazin-2-yl]pyrrolidine-2-carboxamide] | > 10000 | > 10000 | > 10000
Nc1cccc2c1CCN(c1ncnc(Nc3cccc(CS(N)(=O)=O)c3)n1)C2 [Compound B41, 3-[(4-(5-Amino-3,4-dihydroisoquinolin-2(1H)-yl)-1,3,5-triazin-2-yl)amino]benzenemethanesulfonamide] | > 10000 | 1000 to 10000 | 1000 to 10000
NS(=O)(=O)Cc1cccc(Nc2ncnc(N3CCNCC3)n2)c1 [Compound B11, 3-[(4-(piperazin-1-yl)-1,3,5-triazin-2-yl)amino]benzenemethane sulfonamide] | > 10000 | > 10000 | > 10000
CN1CCN(c2ncnc(Nc3cccc(CS(N)(=O)=O)c3)n2)CC1 [Compound B12, 3-[(4-(4-Methylpiperazin-1-yl)-1,3,5-triazin-2-yl)amino]-benzenemethanesulfonamide] | > 10000 | > 10000 | > 10000
COC[C@H]1CC[C@H](COC)N1c1ncnc(Nc2cccc(CS(N)(=O)=O)c2)n1 [Compound B19, 3-[(4-((2R,5R)-Bis(methoxymethyl)pyrrolidin-1-yl)-1,3,5-triazin-2-yl)amino]benzenemethanesulfonamide] | > 10000 | > 10000 | > 10000
NS(=O)(=O)Cc1cccc(Nc2ncnc(N3CCC[C@@H]3CNc3ccccc3)n2)c1 [Compound B29, (R)-3-[(4-(2-(Phenylamino-methyl)pyrrolidin-1-yl)-1,3,5-triazin-2-yl)amino]benzenemethanesulfonamide] | > 10000 | 1000 to 10000 | 1000 to 10000
COC(=O)[C@@H]1CCCN1c1ncnc(Nc2cccc(CS(N)(=O)=O)c2)n1 [Compound B22, (S)-Methyl 1-[4-((3-(Sulfamoylmethyl)phenyl)amino)-1,3,5-triazin-2-yl]pyrrolidine-2-carboxylate] | > 10000 | > 10000 | > 10000
NS(=O)(=O)Cc1cccc(Nc2ncnc(N3Cc4cccnc4C3)n2)c1 [Compound B48, 3-[(4-(5H-Pyrrolo[3,4-b]pyridin-6(7H)-yl)-1,3,5-triazin-2-yl)amino]-benzenemethanesulfonamide] | > 10000 | 1000 to 10000 | 100 to 1000
CC(C)(C)OC(=O)NCC1CCCCN1c1ncnc(Nc2cccc(CS(N)(=O)=O)c2)n1 (racemic) [Compound B7, rac-tert-Butyl[(1-(4-((3-(Sulfamoylmethyl)phenyl)amino)-1,3,5-triazin-2-yl)piperidine-2-yl)methyl]carbamate] | > 10000 | > 10000 | > 10000
NS(=O)(=O)Cc1cccc(Nc2ncnc(N3CCNCC3CO)n2)c1 (racemic) [Compound B13, rac-3-[(4-(2-(Hydroxymethyl)piperazin-1-yl)-1,3,5-triazin-2-yl)amino]benzenemethanesulfonamide] | – | > 10000 | > 10000
NS(=O)(=O)Cc1cccc(Nc2ncnc(N3CCC[C@@H]3COc3ccccc3)n2)c1 [Compound B28, (R)-3-[(4-(2-(Phenoxymethyl)pyrrolidin-1-yl)-1,3,5-triazin-2-yl)amino]-benzenemethanesulfonamide] | > 10000 | 1000 to 10000 | 1000 to 10000
NS(=O)(=O)Cc1cccc(Nc2ncnc(N3CCn4ccnc4C3)n2)c1 [Compound B46, 3-[(4-(5,6-Dihydroimidazo[1,2-a]pyrazin-7(8H)-yl)-1,3,5-triazin-2-yl)amino]benzenemethanesulfonamide] | > 10000 | 1000 to 10000 | 1000 to 10000
NS(=O)(=O)Cc1cccc(Nc2ncnc(N3CCC[C@H]3C(F)(F)F)n2)c1 [Compound B16, (S)-3-[(4-(2-(Trifluoromethyl)pyrrolidin-1-yl)-1,3,5-triazin-2-yl)amino]-benzenemethanesulfonamide] | > 10000 | 100 to 1000 | 1000 to 10000
NS(=O)(=O)Cc1cccc(Nc2ncnc(N3CCc4ncncc4C3)n2)c1 [Compound B39, 3-[(4-(7,8-Dihydropyrido[4,3-d]pyrimidin-6(5H)-yl)-1,3,5-triazin-2-yl)amino]benzenemethanesulfonamide] | > 10000 | 100 to 1000 | 1000 to 10000
NS(=O)(=O)Cc1cccc(Nc2ncnc(N3CCCC3)n2)c1 [Compound B14, 3-[(4-(Pyrrolidin-1-yl)-1,3,5-triazin-2-yl)amino]benzenemethane sulfonamide] | > 10000 | 100 to 1000 | 1000 to 10000
COCC1CCCCN1c1ncnc(Nc2cccc(CS(N)(=O)=O)c2)n1 (racemic) [Compound B4, rac-3-[(4-(2-Methoxymethylpiperidin-1-yl)-1,3,5-triazin-2-yl)amino]-benzenemethanesulfonamide] | > 10000 | 100 to 1000 | 100 to 1000

Second part, the compound after the results:

Kd [1] [nM] | Kd [2] [nM] | Kd [3] [nM] | SMILES
> 10000 | 100 to 1000 | 1000 to 10000 | C[C@@H]1CCCN1c1ncnc(Nc2cccc(CS(N)(=O)=O)c2)n1 [Compound B15, (R)-3-[(4-(2-Methylpyrrolidin-1-yl)-1,3,5-triazin-2-yl)amino]-benzenemethanesulfonamide]
> 10000 | 100 to 1000 | 100 to 1000 | NS(=O)(=O)Cc1cccc(Nc2ncnc(N3CCCC(F)(F)C3)n2)c1 [Compound B3, 3-[(4-(3,3-Difluoropiperidin-1-yl)-1,3,5-triazin-2-yl)amino]-benzenemethanesulfonamide]
> 10000 | 100 to 1000 | 100 to 1000 | NS(=O)(=O)Cc1cccc(Nc2ncnc(N3CCC(F)(F)CC3)n2)c1 [Compound B2, 3-[(4-(4,4-Difluoropiperidin-1-yl)-1,3,5-triazin-2-yl)amino]-benzenemethanesulfonamide]
1000 to 10000 | 100 to 1000 | 100 to 1000 | NS(=O)(=O)Cc1cccc(Nc2ncnc(N3CCc4sccc4C3)n2)c1 [Compound B43, 3-[(4-(6,7-Dihydrothieno[3,2-c]pyridin-5(4H)-yl)-1,3,5-triazin-2-yl)amino]benzenemethanesulfonamide]
> 10000 | 100 to 1000 | 100 to 1000 | NS(=O)(=O)Cc1cccc(Nc2ncnc(N3CCCC3Cc3ccccc3)n2)c1 (racemic) [Compound B26, rac-3-[(4-(2-Benzylpyrrolidin-1-yl)-1,3,5-triazin-2-yl)amino]-benzenemethanesulfonamide]
> 10000 | 100 to 1000 | 1000 to 10000 | NS(=O)(=O)Cc1cccc(Nc2ncnc(N3Cc4cncnc4C3)n2)c1 [Compound B50, 3-[(4-(5H-Pyrrolo[3,4-d]pyrimidin-6(7H)-yl)-1,3,5-triazin-2-yl)amino]-benzenemethanesulfonamide]
> 10000 | < 100 | 100 to 1000 | COC(=O)[C@H]1CCCCN1c1ncnc(Nc2cccc(CS(N)(=O)=O)c2)n1 [Compound B6, (R)-Methyl 1-[4-((3-(Sulfamoylmethyl)phenyl)amino)-1,3,5-triazin-2-yl]piperidine-2-carboxylate]
> 10000 | 100 to 1000 | 100 to 1000 | NS(=O)(=O)Cc1cccc(Nc2ncnc(N3CCCCC3c3ccccc3)n2)c1 (racemic) [Compound B9, rac-3-[(4-(2-Phenylpiperidin-1-yl)-1,3,5-triazin-2-yl)amino]-benzenemethanesulfonamide]
